Test results as given in US7468391B2, “Methods for treating retinoid responsive disorders using selective inhibitors of CYP26A and CYP26B” (Allergan, Inc., priority 2003, dated 2008).

Columns and labels:
CYP26A (P450RAI-1) = biological target: T1, CYP26A (P450RAI-1) (Homo sapiens, UniProt O43174); test: Cell-based inhibition of RA metabolism in CYP26A stably transfected HeLa cells; settings: for IC50: Table 3, stably transfected HeLa cells, [3H]-RA, 3 hours at 37° C., read-out: CYP26A Intact cells IC50
T1 construct: expressed in transfected cells; host or cells: HeLa
T1 sequence (O43174 1-497): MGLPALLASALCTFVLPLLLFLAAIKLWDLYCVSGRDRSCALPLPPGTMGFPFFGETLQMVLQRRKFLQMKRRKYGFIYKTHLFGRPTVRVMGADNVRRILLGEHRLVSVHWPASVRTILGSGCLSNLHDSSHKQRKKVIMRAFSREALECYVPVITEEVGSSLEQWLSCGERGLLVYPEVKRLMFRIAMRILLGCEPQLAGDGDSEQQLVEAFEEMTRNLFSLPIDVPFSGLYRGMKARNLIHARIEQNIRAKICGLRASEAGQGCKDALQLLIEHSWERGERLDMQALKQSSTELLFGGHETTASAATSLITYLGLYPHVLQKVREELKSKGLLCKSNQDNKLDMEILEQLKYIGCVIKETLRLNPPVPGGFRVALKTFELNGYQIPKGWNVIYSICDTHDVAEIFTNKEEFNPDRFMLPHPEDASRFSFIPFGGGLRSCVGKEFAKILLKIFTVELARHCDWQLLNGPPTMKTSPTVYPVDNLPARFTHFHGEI
Outline: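 Stably transfected HeLa cells (5×10^5/well) in MEM with 10% FBS and 0.05 μCi [3H]-RA, compounds at 10, 1 or 0.1 μM final, 3 h at 37° C. Retinoids extracted by modified Bligh-Dyer (methylene chloride); aqueous radioactivity counted; ID50 for 50% inhibition of RA metabolism derived from log-transformed data.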

RAR β [1] = biological target: T2, RAR β (Homo sapiens, UniProt P10826); test: RAR β EC50/(efficacy); type: cell-based; settings: Table 3
T2 sequence (P10826 1-455): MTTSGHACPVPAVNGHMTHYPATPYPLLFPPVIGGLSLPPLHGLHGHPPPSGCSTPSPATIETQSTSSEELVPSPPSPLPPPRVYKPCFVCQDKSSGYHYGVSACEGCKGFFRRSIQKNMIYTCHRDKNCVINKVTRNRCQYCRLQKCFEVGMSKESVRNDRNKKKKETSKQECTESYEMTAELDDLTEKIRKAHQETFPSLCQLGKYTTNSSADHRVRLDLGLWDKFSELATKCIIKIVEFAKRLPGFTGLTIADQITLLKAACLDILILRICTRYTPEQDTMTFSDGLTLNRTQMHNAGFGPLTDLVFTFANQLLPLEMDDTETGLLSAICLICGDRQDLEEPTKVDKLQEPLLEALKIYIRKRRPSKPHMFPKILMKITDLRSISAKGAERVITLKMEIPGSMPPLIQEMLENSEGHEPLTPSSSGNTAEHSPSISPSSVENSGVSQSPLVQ

RAR α = biological target: T3, RAR α (Homo sapiens, UniProt P10276); test: RAR α Kd; type: binding; settings: Table 3
T3 sequence (P10276 1-462): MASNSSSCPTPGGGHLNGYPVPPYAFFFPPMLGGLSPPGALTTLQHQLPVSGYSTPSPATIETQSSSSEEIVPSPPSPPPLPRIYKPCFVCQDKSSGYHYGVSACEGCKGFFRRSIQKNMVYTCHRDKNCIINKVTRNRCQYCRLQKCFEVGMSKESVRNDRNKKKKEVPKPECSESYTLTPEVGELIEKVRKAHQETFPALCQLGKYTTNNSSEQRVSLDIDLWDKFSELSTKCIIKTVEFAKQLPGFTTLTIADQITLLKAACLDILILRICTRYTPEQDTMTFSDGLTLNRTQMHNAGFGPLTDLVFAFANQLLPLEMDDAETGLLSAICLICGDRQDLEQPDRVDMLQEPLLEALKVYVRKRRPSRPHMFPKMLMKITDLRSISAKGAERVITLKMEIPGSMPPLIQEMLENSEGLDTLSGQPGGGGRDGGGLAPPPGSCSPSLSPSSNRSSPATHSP

RAR β [2] = biological target: T2, RAR β; test: RAR β Kd; type: binding; settings: Table 3
RAR γ = biological target: T4, RAR γ (Homo sapiens, UniProt P13631); test: RAR γ Kd; type: binding; settings: Table 3
T4 sequence (P13631 1-454): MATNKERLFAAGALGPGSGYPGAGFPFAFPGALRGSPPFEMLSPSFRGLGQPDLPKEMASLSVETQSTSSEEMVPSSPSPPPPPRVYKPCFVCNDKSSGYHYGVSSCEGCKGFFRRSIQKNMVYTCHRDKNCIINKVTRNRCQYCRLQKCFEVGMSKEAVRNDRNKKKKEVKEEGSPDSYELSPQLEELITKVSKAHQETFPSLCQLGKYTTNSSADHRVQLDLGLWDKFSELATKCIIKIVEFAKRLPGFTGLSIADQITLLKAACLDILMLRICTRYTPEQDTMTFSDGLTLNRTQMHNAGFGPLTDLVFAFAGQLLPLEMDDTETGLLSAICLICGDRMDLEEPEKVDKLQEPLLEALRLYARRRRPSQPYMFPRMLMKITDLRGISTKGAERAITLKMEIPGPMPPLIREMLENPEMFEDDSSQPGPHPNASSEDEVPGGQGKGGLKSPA

Row | IC50 (CYP26A (P450RAI-1)) | RAR β (EFFICACY) (RAR β [1]) | Kd (RAR α) | Kd (RAR β [2]) | Kd (RAR γ) | selectivity for CYP26A relative to CYP26B (CYP26A (P450RAI-1); ratio of ID50 values) | SMILES
1 | > 10 µM | 25 | > 10 µM | > 10 µM | > 10 µM | – | CN(Cc1cccc(C#Cc2ccc(/C=C/C(=O)O)cc2)c1)C1CC1 [AGN 199713]
2 | 0.6 µM | < 5 | > 10 µM | > 10 µM | > 10 µM | at least 10 fold | CN(C1CC1)C1CCC(C)(C)c2cc(C#Cc3ccc(C(C)(C)C(=O)O)cc3)ccc21 (centres unmarked) [AGN 198790]
